What all share (format): cell-based
Assay [1] addresses T1, P2X purinoceptor 1 (Homo sapiens, UniProt P51575).
T1 sequence (P51575 whole entry): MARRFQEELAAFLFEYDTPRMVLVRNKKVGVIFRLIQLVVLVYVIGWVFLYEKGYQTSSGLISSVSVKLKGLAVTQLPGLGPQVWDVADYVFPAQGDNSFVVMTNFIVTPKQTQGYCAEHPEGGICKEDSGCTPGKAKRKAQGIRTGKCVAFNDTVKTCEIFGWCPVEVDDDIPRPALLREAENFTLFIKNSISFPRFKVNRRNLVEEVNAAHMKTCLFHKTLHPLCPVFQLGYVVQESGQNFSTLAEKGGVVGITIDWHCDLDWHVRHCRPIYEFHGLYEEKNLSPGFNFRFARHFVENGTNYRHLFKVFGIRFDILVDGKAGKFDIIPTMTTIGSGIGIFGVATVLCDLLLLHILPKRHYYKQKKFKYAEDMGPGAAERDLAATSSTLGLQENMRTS
Nature of the assay: […] activity at human P2X1R expressing CHO cells assessed as reduction in intracellular Ca2+ influx pretreated with Fluo-4 for 1 hr followed by compound addition and further incubated for 30 mins in presence of ATP by multimode plate reader analysis.

In assay [2] the target is T2, P2X purinoceptor 2 (Homo sapiens, UniProt Q9UBL9).
T2 sequence (Q9UBL9 whole entry): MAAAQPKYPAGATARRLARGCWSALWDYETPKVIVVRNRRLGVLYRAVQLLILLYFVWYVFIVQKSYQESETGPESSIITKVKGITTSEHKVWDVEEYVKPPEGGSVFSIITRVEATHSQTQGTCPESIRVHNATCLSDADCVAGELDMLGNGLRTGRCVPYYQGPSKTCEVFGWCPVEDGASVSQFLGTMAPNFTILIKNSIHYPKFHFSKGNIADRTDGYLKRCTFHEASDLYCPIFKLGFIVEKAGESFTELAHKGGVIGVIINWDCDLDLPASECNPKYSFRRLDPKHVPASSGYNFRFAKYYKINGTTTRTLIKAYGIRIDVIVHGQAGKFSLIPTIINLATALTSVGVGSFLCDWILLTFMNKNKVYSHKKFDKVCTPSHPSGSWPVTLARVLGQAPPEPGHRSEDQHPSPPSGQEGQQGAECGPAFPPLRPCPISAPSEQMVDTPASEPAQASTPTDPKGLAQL
The assay can be described thus: […] activity at human P2X2R expressing CHO cells assessed as reduction in intracellular Ca2+ influx pretreated with Fluo-4 for 1 hr followed by compound addition and further incubated for 30 mins in presence of ATP by multimode plate reader analysis.

Assay [3] has as its target T3, P2X purinoceptor 3 (Homo sapiens, UniProt P56373).
T3 sequence (P56373 whole entry): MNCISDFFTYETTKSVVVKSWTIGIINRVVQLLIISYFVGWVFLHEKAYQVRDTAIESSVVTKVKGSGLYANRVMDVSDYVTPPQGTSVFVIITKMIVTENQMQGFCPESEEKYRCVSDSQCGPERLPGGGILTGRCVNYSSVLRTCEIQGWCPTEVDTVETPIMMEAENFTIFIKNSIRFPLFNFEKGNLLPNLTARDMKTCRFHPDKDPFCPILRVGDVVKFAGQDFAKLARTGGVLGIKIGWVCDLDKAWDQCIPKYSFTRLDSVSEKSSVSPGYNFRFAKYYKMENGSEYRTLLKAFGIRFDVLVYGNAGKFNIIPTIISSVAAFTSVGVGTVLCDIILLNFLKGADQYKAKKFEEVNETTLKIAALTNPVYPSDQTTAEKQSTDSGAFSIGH
Nature of the assay: […] activity at human P2X3R expressing CHO cells assessed as reduction in intracellular Ca2+ influx pretreated with Fluo-4 for 1 hr followed by compound addition and further incubated for 30 mins in presence of ATP by multimode plate reader analysis.

The target of assay [4] is T4, P2X2/P2X3 heterotrimeric receptor (Homo sapiens, UniProt P56373+Q9UBL9).
T4 sequence (Q9UBL9 whole entry): T2 sequence (Q9UBL9 whole entry)
T4 sequence (P56373 whole entry): T3 sequence (P56373 whole entry)
Nature of the assay: […] activity at human P2X2R/P2X3R expressing CHO cells assessed as reduction in intracellular Ca2+ influx pretreated with Fluo-4 for 1 hr followed by compound addition and further incubated for 30 mins in presence of ATP by multimode plate reader analysis.

Assay [5] deals with T5, P2X purinoceptor 4 (Homo sapiens, UniProt Q99571).
T5 sequence (Q99571 whole entry): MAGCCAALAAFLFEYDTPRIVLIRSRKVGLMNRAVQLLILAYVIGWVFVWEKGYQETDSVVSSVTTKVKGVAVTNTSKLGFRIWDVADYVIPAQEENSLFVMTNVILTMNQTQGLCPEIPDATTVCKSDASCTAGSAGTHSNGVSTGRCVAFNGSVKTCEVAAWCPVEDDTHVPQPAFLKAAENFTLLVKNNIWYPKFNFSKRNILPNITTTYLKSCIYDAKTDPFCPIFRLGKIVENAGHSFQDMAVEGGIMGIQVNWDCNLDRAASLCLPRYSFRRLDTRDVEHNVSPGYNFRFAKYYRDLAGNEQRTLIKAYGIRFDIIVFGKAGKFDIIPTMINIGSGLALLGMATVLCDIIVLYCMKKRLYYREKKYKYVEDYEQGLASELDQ
The assay can be described thus: […] activity at human P2X4R expressing HEK293 cells assessed as reduction in intracellular Ca2+ influx pretreated with Fluo-4 for 1 hr followed by compound addition and further incubated for 30 mins in presence of ATP by multimode plate reader analysis.

Assay [6] addresses T6, P2X purinoceptor 7 (Homo sapiens, UniProt Q99572).
T6 sequence (Q99572 whole entry): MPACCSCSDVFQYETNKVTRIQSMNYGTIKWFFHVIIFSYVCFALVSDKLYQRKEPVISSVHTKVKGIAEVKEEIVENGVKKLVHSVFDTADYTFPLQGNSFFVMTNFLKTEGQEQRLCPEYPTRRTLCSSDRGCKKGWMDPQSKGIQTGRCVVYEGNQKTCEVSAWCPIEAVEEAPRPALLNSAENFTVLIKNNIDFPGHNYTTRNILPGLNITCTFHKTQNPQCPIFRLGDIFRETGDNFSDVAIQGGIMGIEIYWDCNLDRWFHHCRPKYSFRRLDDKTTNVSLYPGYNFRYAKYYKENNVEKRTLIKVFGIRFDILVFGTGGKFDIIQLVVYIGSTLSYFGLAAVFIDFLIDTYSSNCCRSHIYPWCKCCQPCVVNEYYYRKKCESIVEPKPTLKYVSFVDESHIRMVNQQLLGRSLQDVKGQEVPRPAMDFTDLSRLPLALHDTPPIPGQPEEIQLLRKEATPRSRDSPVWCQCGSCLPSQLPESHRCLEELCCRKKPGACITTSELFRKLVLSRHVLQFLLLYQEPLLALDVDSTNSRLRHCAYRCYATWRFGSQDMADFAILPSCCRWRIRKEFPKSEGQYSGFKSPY
Nature of the assay: […] activity at human P2X7R expressing HEK293 cells assessed as reduction in intracellular Ca2+ influx pretreated with Fluo-4 for 1 hr followed by compound addition and further incubated for 30 mins in presence of ATP by multimode plate reader analysis.

Assay [7] deals with T6, P2X purinoceptor 7. The assay can be described thus: […] activity at human P2X7R expressed in HEK293 cells assessed as reduction in YO-PRO-1 iodide dye uptake preincubated for 30 mins followed by YO-PRO-1 iodide addition and measured after 2 hrs by fluorescence based multimode plate reader analysis.
Assay [8] has as its target T1, P2X purinoceptor 1. Nature of the assay: Antagonist activity at human P2X1R expressing CHO cells assessed as reduction in intracellular Ca2+ influx pretreated with Fluo-4 for 1 hr followed by compound addition and further incubated for 30 mins in presence of ATP by multimode plate reader analysis.
Assay [9] has as its target T2, P2X purinoceptor 2. Nature of the assay: Antagonist activity at human P2X2R expressing CHO cells assessed as reduction in intracellular Ca2+ influx pretreated with Fluo-4 for 1 hr followed by compound addition and further incubated for 30 mins in presence of ATP by multimode plate reader analysis.
The target of assay [10] is T3, P2X purinoceptor 3. Nature of the assay: Antagonist activity at human P2X3R expressing CHO cells assessed as reduction in intracellular Ca2+ influx pretreated with Fluo-4 for 1 hr followed by compound addition and further incubated for 30 mins in presence of ATP by multimode plate reader analysis.
The target of assay [11] is T4, P2X2/P2X3 heterotrimeric receptor. The assay can be described thus: Antagonist activity at human P2X2R/P2X3R expressing CHO cells assessed as reduction in intracellular Ca2+ influx pretreated with Fluo-4 for 1 hr followed by compound addition and further incubated for 30 mins in presence of ATP by multimode plate reader analysis.
Assay [12] deals with T5, P2X purinoceptor 4. Nature of the assay: Antagonist activity at human P2X4R expressing HEK293 cells assessed as reduction in intracellular Ca2+ influx pretreated with Fluo-4 for 1 hr followed by compound addition and further incubated for 30 mins in presence of ATP by multimode plate reader analysis.
The target of assay [13] is T6, P2X purinoceptor 7. Nature of the assay: Antagonist activity at human P2X7R expressing HEK293 cells assessed as reduction in intracellular Ca2+ influx pretreated with Fluo-4 for 1 hr followed by compound addition and further incubated for 30 mins in presence of ATP by multimode plate reader analysis.

For orientation: EC50 means the concentration needed to bring the measured effect to its halfway point. Usually IC50 stands for the midpoint of a concentration-inhibition curve.

The structures appear in SMILES notation.

Consider `Nc1ncnc2c1ncn2[C@@H]1O[C@H](COP(=O)(O)OP(=O)(O)OP(=O)(O)O)[C@@H](OC(=O)c2cccc3ccccc23)[C@H]1OC(=O)c1cccc2ccccc12`, for which the EC50 on P2X purinoceptor 1 [1] was over 100 µM; at P2X purinoceptor 2 [2], over 100 µM; on P2X purinoceptor 3 [3], over 100 µM; in assay [4], over 100 µM; on P2X purinoceptor 4 [5], over 100 µM; on P2X purinoceptor 7 [6], 16.6 µM. The EC50 at P2X purinoceptor 7 [7] was 22.4 µM. Besides, the IC50 on P2X purinoceptor 1 [8] was 15.8 µM; on P2X purinoceptor 2 [9], 10 µM; at P2X purinoceptor 3 [10], 18.6 µM; in assay [11] it was 11.5 µM; on P2X purinoceptor 4 [12], 6.31 µM; at P2X purinoceptor 7 [13], over 100 µM.
Turning to `Nc1ncnc2c1ncn2[C@@H]1O[C@H](COP(=O)(O)OP(=O)(O)OP(=O)(O)O)[C@@H](OC(=O)c2ccccc2)[C@H]1OC(=O)c1ccccc1`, the EC50 on P2X purinoceptor 1 [1] was over 100 µM; on P2X purinoceptor 2 [2], over 100 µM; at P2X purinoceptor 3 [3] it was over 100 µM; in [4], 1.2 µM; at P2X purinoceptor 4 [5] it was 1.48 µM; at P2X purinoceptor 7 [6], over 100 µM. Moreover, the EC50 at P2X purinoceptor 7 [7] was over 100 µM. Further, the IC50 at P2X purinoceptor 1 [8] was over 100 µM; on P2X purinoceptor 2 [9] it was 26.3 µM; at P2X purinoceptor 3 [10], over 100 µM; in [11], over 100 µM; at P2X purinoceptor 4 [12], over 100 µM; at P2X purinoceptor 7 [13], over 100 µM.
`COc1ccc(C(=O)O[C@@H]2[C@H](OC(=O)c3ccc(OC)cc3)[C@@H](COP(=O)(O)OP(=O)(O)OP(=O)(O)O)O[C@H]2n2cnc3c(N)ncnc32)cc1`: the IC50 (at P2X purinoceptor 1 [1]; on P2X purinoceptor 2 [2]; at P2X purinoceptor 3 [3]; in [4]; on P2X purinoceptor 4 [5]; at P2X purinoceptor 7 [6]) was over 100 µM each time. Also, the half-maximal inhibitory concentration (IC50) (at P2X purinoceptor 7 [7]; on P2X purinoceptor 1 [8]; on P2X purinoceptor 2 [9]; on P2X purinoceptor 3 [10]; in assay [11]; at P2X purinoceptor 4 [12]) was over 100 µM each time. Besides, the IC50 at P2X purinoceptor 7 [13] was over 100 µM.

Source of the values: ChEMBL document CHEMBL5120960, “Unveiling the Structure-Activity Relationships at the Orthosteric Binding Site of P2X Ion Channels: The Route to Selectivity” (J Med Chem, 2022).
